Data on 4 compounds can be found in ChEMBL document CHEMBL1201862, “PubChem BioAssay data set” (2004).

The structures appear in SMILES notation. Calls of active or inactive are those of the source. Bounds are passed on as bounds.

The target in assay [1] is T1, Mannose-6-phosphate isomerase (Homo sapiens, UniProt P34949).
T1 sequence (P34949 whole entry): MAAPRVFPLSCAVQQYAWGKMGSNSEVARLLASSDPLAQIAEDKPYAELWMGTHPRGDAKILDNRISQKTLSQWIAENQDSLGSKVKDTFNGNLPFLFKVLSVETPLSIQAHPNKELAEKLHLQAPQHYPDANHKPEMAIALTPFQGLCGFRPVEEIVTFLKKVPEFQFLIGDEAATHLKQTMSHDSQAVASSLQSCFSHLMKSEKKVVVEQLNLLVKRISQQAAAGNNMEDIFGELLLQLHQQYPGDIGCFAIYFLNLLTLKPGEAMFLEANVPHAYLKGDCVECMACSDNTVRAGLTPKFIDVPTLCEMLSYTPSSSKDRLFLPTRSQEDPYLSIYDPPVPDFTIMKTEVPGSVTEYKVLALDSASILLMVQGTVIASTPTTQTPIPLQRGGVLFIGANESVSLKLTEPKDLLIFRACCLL
The experiment in a line: MPI inhibition at elevated mannose 6-phosphate – biochemical, fluorescence intensity, high mannose 6-phosphate, primary screen (AID 1220).

The target of assay [2] is T2, Nuclear receptor subfamily 0 group B member 1 (Homo sapiens, UniProt P51843).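 Note: HEK293T cells transfected with SF-1 and DAX-1 plus StAR promoter luciferase reporter.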
T2 sequence (P51843 whole entry): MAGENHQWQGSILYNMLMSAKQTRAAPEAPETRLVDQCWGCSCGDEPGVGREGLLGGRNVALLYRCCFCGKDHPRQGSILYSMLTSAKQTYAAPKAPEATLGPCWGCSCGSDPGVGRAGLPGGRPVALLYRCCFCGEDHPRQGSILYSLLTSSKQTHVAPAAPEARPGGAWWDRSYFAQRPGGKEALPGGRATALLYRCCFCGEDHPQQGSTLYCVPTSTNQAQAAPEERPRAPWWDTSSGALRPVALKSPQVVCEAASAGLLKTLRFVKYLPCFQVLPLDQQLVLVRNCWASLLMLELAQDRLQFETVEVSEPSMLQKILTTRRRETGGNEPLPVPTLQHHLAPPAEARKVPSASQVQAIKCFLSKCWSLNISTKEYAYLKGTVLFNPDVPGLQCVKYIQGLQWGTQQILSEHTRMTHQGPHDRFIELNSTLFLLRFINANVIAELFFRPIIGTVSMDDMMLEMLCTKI
It counts as functional, cell-based.

The target in assay [3] is T3, Histone-lysine N-methyltransferase NSD2 (Homo sapiens, UniProt O96028).
T3 sequence (O96028 whole entry): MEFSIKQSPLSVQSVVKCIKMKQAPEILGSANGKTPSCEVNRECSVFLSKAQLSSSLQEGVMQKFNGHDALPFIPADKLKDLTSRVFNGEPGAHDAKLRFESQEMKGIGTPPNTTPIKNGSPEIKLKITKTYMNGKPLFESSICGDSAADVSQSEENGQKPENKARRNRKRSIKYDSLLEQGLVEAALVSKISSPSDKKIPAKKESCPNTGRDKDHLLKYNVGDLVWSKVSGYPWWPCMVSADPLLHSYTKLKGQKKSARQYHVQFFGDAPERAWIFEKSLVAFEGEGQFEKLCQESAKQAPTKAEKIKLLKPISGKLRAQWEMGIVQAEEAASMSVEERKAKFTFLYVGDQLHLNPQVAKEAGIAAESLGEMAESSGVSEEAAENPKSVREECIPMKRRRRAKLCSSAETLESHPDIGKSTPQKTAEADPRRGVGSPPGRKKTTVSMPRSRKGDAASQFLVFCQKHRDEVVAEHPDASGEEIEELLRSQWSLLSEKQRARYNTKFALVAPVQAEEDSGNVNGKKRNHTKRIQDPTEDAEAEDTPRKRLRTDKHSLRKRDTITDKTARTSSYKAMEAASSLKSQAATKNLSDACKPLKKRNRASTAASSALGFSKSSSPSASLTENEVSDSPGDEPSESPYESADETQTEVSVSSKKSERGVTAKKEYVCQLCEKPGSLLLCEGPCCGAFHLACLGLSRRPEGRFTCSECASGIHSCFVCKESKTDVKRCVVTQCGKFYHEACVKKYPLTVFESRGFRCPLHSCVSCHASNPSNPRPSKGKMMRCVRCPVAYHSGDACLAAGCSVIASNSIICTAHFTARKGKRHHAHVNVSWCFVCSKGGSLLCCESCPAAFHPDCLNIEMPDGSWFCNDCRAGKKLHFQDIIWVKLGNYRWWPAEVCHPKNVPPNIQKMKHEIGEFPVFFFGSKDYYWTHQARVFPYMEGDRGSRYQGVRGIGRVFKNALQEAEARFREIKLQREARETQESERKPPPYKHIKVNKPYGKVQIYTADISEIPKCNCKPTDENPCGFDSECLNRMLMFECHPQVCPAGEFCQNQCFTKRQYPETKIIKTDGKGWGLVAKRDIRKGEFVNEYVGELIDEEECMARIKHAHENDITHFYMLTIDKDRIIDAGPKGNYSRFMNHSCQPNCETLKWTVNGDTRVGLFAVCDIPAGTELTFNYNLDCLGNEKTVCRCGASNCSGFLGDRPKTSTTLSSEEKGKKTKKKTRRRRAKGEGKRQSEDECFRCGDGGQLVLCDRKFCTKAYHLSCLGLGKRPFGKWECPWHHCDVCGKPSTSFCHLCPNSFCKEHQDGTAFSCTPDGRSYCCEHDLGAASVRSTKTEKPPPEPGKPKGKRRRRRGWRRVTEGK
It counts as biochemical.

The target of assay [4] is RAC-gamma serine/threonine-protein kinase (Homo sapiens, UniProt Q9Y243). It counts as functional.
RAC-gamma serine/threonine-protein kinase, sequence (Q9Y243 whole entry): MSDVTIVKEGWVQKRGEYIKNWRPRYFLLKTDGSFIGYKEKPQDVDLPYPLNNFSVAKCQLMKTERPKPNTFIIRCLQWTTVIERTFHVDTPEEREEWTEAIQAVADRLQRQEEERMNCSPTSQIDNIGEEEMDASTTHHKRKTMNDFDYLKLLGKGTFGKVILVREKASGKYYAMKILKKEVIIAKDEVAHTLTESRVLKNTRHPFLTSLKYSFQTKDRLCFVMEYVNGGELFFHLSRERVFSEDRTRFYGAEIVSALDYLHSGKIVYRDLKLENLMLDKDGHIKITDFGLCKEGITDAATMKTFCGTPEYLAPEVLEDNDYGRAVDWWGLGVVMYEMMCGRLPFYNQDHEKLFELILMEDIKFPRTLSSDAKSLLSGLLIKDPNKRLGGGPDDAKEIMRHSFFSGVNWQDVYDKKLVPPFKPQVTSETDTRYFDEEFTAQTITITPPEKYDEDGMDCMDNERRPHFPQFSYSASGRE
The target in assay [5] is Testis-specific serine/threonine-protein kinase 2 (Homo sapiens, UniProt Q96PF2). Type of assay: functional.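 Note: part of the Navigating the Kinome panel, target entry STK22B.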
Testis-specific serine/threonine-protein kinase 2, sequence (Q96PF2 whole entry): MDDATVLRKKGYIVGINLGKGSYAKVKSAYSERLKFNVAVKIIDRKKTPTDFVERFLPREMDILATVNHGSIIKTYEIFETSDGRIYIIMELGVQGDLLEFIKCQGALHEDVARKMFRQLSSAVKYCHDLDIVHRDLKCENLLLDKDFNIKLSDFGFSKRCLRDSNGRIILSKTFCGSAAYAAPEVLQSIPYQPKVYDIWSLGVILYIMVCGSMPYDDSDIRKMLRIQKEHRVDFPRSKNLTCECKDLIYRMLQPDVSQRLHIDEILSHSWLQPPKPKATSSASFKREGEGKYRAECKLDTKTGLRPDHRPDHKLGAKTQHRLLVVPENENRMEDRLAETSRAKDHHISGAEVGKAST
Assay [6] addresses Tyrosine-protein kinase Blk (Homo sapiens, UniProt P51451). Type of assay: functional.
Assay [7] has as its target MAP/microtubule affinity-regulating kinase 3 (Homo sapiens, UniProt P27448). It counts as functional.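 Note: MARK3 affinity measured as one member of a kinome panel.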
The target in assay [8] is Cyclin-dependent kinase 5 (Homo sapiens, UniProt Q00535). Type of assay: functional.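 Note: CDK5 measured as one member of a kinase profiling panel.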
Cyclin-dependent kinase 5, sequence (Q00535 whole entry): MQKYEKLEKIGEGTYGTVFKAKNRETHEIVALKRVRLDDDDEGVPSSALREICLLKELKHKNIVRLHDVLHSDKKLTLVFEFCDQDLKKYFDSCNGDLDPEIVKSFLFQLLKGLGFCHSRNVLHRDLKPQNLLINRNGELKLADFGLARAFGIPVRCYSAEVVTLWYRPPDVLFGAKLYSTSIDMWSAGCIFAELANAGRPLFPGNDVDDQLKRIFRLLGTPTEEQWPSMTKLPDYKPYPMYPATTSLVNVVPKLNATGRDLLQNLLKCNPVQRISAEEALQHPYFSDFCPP
Assay [9] concerns the target Serine/threonine-protein kinase DCLK1 (Homo sapiens, UniProt O15075). Type of assay: functional.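 Note: affinity for DCLK1 (listed as DCAMKL1) measured as one member of a kinome-wide kinase profiling panel.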
Assay [10] has as its target Lymphokine-activated killer T-cell-originated protein kinase (Homo sapiens, UniProt Q96KB5). Type of assay: functional.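 Note: value comes from a kinase panel screen in which TOPK was one of the panel members.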
The target in assay [11] is Serine/threonine-protein kinase MRCK alpha (Homo sapiens, UniProt Q5VT25). It counts as functional.

Tyrosine-protein kinase Blk, sequence (P51451 whole entry): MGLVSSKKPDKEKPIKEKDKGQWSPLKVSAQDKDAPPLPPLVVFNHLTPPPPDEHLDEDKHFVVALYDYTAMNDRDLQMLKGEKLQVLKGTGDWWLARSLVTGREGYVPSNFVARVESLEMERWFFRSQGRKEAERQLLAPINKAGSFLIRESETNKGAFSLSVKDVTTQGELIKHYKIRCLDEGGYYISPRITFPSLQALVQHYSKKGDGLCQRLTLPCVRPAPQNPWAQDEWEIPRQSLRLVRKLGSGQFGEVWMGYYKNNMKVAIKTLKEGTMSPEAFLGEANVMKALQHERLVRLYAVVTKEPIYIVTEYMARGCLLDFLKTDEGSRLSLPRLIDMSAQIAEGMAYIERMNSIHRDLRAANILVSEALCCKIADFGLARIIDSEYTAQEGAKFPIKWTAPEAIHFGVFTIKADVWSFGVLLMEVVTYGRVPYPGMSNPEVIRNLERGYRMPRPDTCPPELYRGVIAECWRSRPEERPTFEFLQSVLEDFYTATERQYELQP
Lymphokine-activated killer T-cell-originated protein kinase, sequence (Q96KB5 whole entry): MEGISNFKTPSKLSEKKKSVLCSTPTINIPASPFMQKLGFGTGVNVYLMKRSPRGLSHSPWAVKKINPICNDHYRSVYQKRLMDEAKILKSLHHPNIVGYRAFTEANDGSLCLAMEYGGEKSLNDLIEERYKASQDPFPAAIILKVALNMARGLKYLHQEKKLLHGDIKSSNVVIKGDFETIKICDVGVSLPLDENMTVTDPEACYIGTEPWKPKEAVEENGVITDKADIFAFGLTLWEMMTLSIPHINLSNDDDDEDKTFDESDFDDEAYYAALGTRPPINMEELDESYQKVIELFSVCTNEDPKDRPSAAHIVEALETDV
MAP/microtubule affinity-regulating kinase 3, sequence (P27448 whole entry): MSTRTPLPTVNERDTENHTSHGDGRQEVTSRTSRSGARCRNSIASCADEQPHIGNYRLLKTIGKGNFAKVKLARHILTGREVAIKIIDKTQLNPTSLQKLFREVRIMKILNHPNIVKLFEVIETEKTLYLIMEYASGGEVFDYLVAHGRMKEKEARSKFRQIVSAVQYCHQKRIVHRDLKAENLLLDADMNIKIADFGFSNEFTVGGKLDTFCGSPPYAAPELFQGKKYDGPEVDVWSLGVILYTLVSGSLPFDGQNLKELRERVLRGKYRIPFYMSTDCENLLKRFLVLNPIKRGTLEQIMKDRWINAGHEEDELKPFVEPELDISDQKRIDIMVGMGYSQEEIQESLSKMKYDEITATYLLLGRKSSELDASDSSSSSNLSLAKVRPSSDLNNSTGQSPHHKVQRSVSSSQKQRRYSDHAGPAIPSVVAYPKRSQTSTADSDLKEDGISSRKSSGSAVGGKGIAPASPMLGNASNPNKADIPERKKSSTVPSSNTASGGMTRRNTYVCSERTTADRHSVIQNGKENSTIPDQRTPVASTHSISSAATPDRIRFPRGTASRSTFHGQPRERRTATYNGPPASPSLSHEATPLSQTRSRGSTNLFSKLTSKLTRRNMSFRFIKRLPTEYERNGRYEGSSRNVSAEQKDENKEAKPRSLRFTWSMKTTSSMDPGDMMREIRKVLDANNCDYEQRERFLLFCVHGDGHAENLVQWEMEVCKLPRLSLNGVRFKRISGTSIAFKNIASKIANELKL
Serine/threonine-protein kinase DCLK1, sequence (O15075 whole entry): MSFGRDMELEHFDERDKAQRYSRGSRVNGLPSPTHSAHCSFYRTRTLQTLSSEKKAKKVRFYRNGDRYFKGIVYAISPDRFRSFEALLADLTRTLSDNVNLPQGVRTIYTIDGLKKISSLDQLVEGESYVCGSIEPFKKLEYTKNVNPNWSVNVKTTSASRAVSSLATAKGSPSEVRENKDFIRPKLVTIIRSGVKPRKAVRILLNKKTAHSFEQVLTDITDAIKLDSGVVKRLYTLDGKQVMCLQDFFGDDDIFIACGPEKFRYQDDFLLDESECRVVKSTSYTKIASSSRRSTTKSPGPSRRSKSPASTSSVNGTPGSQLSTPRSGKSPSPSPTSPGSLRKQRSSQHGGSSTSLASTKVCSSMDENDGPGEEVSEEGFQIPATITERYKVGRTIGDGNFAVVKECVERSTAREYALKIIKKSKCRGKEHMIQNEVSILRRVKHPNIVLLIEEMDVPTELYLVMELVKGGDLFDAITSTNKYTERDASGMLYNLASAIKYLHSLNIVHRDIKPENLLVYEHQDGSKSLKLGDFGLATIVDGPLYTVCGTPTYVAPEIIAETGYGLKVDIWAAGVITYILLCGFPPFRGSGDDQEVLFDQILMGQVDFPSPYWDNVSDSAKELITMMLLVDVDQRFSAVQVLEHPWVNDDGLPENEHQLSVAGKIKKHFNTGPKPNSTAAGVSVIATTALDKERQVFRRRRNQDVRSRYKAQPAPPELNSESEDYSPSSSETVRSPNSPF

On to `Cc1ccc(C(=O)c2c(C)oc3c2C(=O)C(=O)c2ccccc2-3)cc1`, for which the IC50 in assay [1] is reported as > 50 µM (not active).
For the compound `Cc1cnc(NC(=O)c2sc3ccccc3c2Cl)s1`, in assay [2], the IC50 is > 67.5 µM (inactive).
With `O=C1C(O)=C/C(=N\c2ccccc2O)c2ccccc21`, in assay [3], the AC50 was 2.39 µM (active).
Regarding `O=C1NC(=S)SC1=C1C(=O)Nc2ccc(Br)cc21`, the Ki in [4] is > 10 µM (inactive); in [5], > 1.58 µM (inactive); in [6], > 1.58 µM (inactive); in [7], 2.51 µM (active); in [8], > 10 µM (inactive); in assay [9], > 10 µM (inactive). For the same compound, the results for the Ki in assay [10] and in [11] were 7.94 µM (active) and > 10 µM (inactive), respectively.

A word on the IC50: it is the concentration needed to halve the response being measured. For orientation: AC50 means the midpoint of the concentration-response curve, whichever way the signal moves. One may read the Ki as a measure of affinity in units of concentration, obtained from inhibition or displacement.
